Reference: patent publication US9387213B2, “Small molecules inhibiting oncoprotein Myc” (Health Research, Inc., priority 2012, dated 2016)
pIC50: −log10 of the molar value.

Experiments:
HO-null cells = assay: Secondary filter for Myc specificity: cell growth inhibition, methylene blue staining; assay type: cell-based; conditions: Rattus norvegicus, 72 h, read-out: ID50 HO-null
Protocol: (§1) FIG. 4 illustrates the myc specificity of tested compounds. Rat1a cells expressing c-myc, L-myc or N-myc or lacking any Myc (null) were treated for 72 h with a range of hit compound concentrations. The cells were then fixed and stained with methylene blue and the percentage of cells in the presence of compound compared to DMSO only control was calculated.
(§2) Validated hits were divided into classes when two or more compounds shared significant structural similarity. The ID50 for N-myc transactivation (the inhibitory dose resulting in 50% decrease in luciferase activity) for each hit was calculated from the dose-response N-myc responsive reporter assay. Compounds within each class were ranked by their ID50 for N-myc transactivation and the best compounds within each class were chosen for further studies. In addition, the best of the structurally unique compounds were also analyzed. A total of 46 hits were passed through a secondary filter designed to determine the specificity of the hits for Myc proteins. For this filter, we used a panel of cell lines derived from Rat1a cells (kindly provided by Michael Cole, Dartmouth University): HO-null-c-Myc deficient cells due to homologous recombination that express neither N-myc nor L-myc HO-c-Myc, HO-L-myc and HO-N-myc derived by retroviral transduction of the corresponding Myc genes into HO-null cells. Since each cell line expresses only a single Myc or no Myc family members, we could identify compounds that act through Myc family members as well as which Myc family members. […] The 18 Myc-specific compounds identified during the screening and filtering process are presented in Table 1 and represent distinct classes of molecules, including pyrazoles (e.g., N147A7, N47E10, N147G5), tetrazoles (e.g., N77A7) and 3-bromophenol (e.g., N4G6).

HO-c-Myc cells = assay: as above; assay type: cell-based, rat; conditions: for Myc Index C: ID50 in HO-null cells divided by ID50 in HO-c-myc cells; for pIC50: Rattus norvegicus, cell growth inhibition, 72 h, methylene blue, read-out: ID50 HO-c-myc
Protocol: as §1, §2

HO-N-myc cells = assay: as above; assay type: cell-based, rat; conditions: for Myc Index N: ID50 in HO-null cells divided by ID50 in HO—N-myc cells; for pIC50: Rattus norvegicus, cell growth inhibition, 72 h, methylene blue, read-out: ID50 HO—N-myc
Protocol: as §1, §2

[1] = Metabolic stability in human liver microsomes
Protocol: Additionally, several of the N77A7 analogs were subjected to the test for the metabolic stability in human and mouse liver microsomes. Briefly, 1 μM of test compound was incubated with microsomal protein (human liver microsomes: 0.5 mg/mL; mouse liver microsomes 0.5 mg/mL) and buffer (100 mM potassium phosphate, pH 7.4, 5 mM magnesium chloride). The positive control was 5 μM testosterone. The reaction was equilibrated at 37 C in a shaking water bath for 3 to 5 minutes. After equilibration, an aliquot was removed and combined with 50/50 acetonitrile/water containing 0.1% formic acid and internal standard to terminate the reaction. 1 mM NADPH was immediately added and the tube was returned to the water bath. Five sample time points were taken (0, 10, 20, 30, and 60 minutes). Aliquots were removed and combined with 50/50 acetonitrile/water containing 0.1% formic acid and internal standard to terminate the reaction. The samples were mixed for 10 minutes and centrifuged. The supernatant from each sample was diluted (if necessary) and then transferred to vials for analysis by LC-MS/MS for the test compound and internal standard without calibration standards. The percent remaining at each time point was determined by the test compound's peak area response ratio versus the 0 minute sample.

SK-Mel-103 = assay: Suppression of proliferation / senescence induction in melanoma line; assay type: cell-based; conditions: Homo sapiens
Description: (§3) 260 analogs of N77A7 were selected from several commercially available libraries of small molecules based on the structural similarities with N77A7. The compounds were screened for the ability to permanently suppress proliferation and induce senescence in cells from melanoma lines SK-Mel-19 and SK-Mel-103. Based on the above-described screening procedure, seven small molecules were identified as having IC50 values lower than that of N77A7.

SK-Mel-19 = assay: as above; assay type: cell-based; conditions: Homo sapiens, SK-MEL19
Description: as §3

[2] = human, microsomes, 0 h, 1 μM, pH 7.4
[3] = human, microsomes, 1 μM, pH 7.4
[4] = human, microsomes, 0.5 h, 1 μM, pH 7.4
[5] = human, microsomes, 1 h, 1 μM, pH 7.4
[6] = mouse, microsomes, 0 h, 1 μM, pH 7.4
[7] = mouse, microsomes, 1 μM, pH 7.4
[8] = mouse, microsomes, 0.5 h, 1 μM, pH 7.4
[9] = mouse, microsomes, 1 h, 1 μM, pH 7.4

SMILES | pIC50 (HO-null cells) | Myc Index C (HO-c-Myc cells) | pIC50 (HO-c-Myc cells) | Myc Index N (HO-N-myc cells) | pIC50 (HO-N-myc cells) | also measured
O=C(NC(NC(=S)Nc1ccc(I)cc1)C(Cl)(Cl)Cl)c1cccc([N+](=O)[O-])c1 (stereo not drawn) [Compound N121F3] | 4.63 | 2.1 | 4.95 | 2.4 | 5.01 | 
CC(C)Nc1ncnc2ccc(Br)cc12 [Compound N117G10] | 4.55 | 4.5 | 5.20 | 6 | 5.34 | 
O=[N+]([O-])c1cccc(Nc2ncnc3ccc(Br)cc23)c1 [Compound N117E2] | < 4.30 | >7 | 5.13 | >6 | 5.06 | 
O=C(Oc1c(C(=O)Nc2ccc(Cl)c([N+](=O)[O-])c2)ccc2ccccc12)c1ccccc1 [Compound N6A8] | 4.68 | 2.4 | 5.05 | 2.2 | 5.01 | 
CC(C)(C)c1cc(C(=O)N/N=C/c2ccc(O)cc2O)n(-c2ccccc2)n1 [Compound N47E10] | 5.14 | 2.8 | 5.60 | 5 | 5.84 | 
O=C(COc1ccc2ccccc2c1)N/N=C\c1cc(O)c(O)c(Br)c1 [Compound N4D2] | < 4.00 | >3 | 4.47 | >1.1 | 4.06 | 
C[C@]12CC[C@H]3[C@@H](CCC4=CC(=O)CC[C@@]43C)[C@@H]1CC[C@@H]2O [Testosterone, testosterone, reference compound] |  |  |  |  |  | Percent Remaining 10 min ([1]; human liver microsomes 0.5 mg/mL, 1 μM test compound (testosterone 5 μM)): 78%; Percent Remaining 30 min ([1]; human liver microsomes 0.5 mg/mL, 1 μM test compound (testosterone 5 μM), 30 min): 40%; Percent Remaining 60 min ([1]; human liver microsomes 0.5 mg/mL, 1 μM test compound (testosterone 5 μM), 60 min): 19%; Percent Remaining 0 min ([1]; human liver microsomes 0.5 mg/mL, 1 μM test compound (testosterone positive control 5 μM), 0 min): 100%; half-life at 1 µM ([1]; human, microsomes, pH 7.4): 23.9 min; Percent Remaining 10 min ([1]; mouse liver microsomes 0.5 mg/mL, 1 μM test compound (testosterone 5 μM)): 19%; Percent Remaining 30 min ([1]; mouse liver microsomes 0.5 mg/mL, 1 μM test compound (testosterone 5 μM), 30 min): <1.0%; Percent Remaining 60 min ([1]; mouse liver microsomes 0.5 mg/mL, 1 μM test compound (testosterone 5 μM), 60 min): <1.0%; Percent Remaining 0 min ([1]; mouse liver microsomes 0.5 mg/mL, 1 μM test compound (testosterone positive control 5 μM), 0 min): 100%; half-life at 1 µM ([1]; mouse, microsomes, pH 7.4): 4.2 min
CCN(CC)c1ccc(/C=N\NC(=O)c2nnn(-c3nonc3N)c2CN2CCCCCC2)c(O)c1 [Compound 4] |  |  |  |  |  | Percent Remaining 0 min [1, 2]: 100%; Percent Remaining 10 min [1, 3]: 56%; Percent Remaining 20 min [1, 3]: 37%; Percent Remaining 30 min [1, 4]: 28%; Percent Remaining 60 min [1, 5]: 20%; half-life at 1 µM ([1]; human, microsomes, pH 7.4): 16 min; microsomal CLint at 1 μM ([1]; human, microsomes, pH 7.4): 87 µL/min/mg; Percent Remaining 0 min [1, 6]: 100%; Percent Remaining 10 min [1, 7]: 3.1%; Percent Remaining 20 min [1, 7]: 1.8%; Percent Remaining 30 min [1, 8]: 1.3%; Percent Remaining 60 min [1, 9]: <1.0%; half-life at 1 µM ([1]; mouse, microsomes, pH 7.4): 2 min; microsomal CLint at 1 μM ([1]; mouse, microsomes, pH 7.4): 690 µL/min/mg; pIC50 (SK-Mel-103): 7.00; pIC50 (SK-Mel-19): 6.82
COc1ccc(OCC(=O)N/N=C\c2cc(O)c(O)c(Br)c2)c(Br)c1 [Compound N4G6] | < 4.00 | >3 | 4.49 | >10 | 4.99 | 
CCN(CC)c1ccc(/C=N/NC(=O)Cn2c3ccccc3c(=O)c3ccccc32)c(O)c1 [Compound 2] |  |  |  |  |  | Percent Remaining 0 min [1, 2]: 100%; Half-life [1, 3]: >60 min; Percent Remaining 10 min [1, 3]: 119%; Percent Remaining 20 min [1, 3]: 91%; Percent Remaining 30 min [1, 4]: 83%; Percent Remaining 60 min [1, 5]: 74%; half-life at 1 µM ([1]; human, microsomes, pH 7.4): > 60 min; microsomal CLint at 1 μM ([1]; human, microsomes, pH 7.4): < 20 µL/min/mg; Percent Remaining 0 min [1, 6]: 100%; Percent Remaining 10 min [1, 7]: 45%; Percent Remaining 20 min [1, 7]: 32%; Percent Remaining 30 min [1, 8]: 26%; Percent Remaining 60 min [1, 9]: 21%; half-life at 1 µM ([1]; mouse, microsomes, pH 7.4): 13.5 min; microsomal CLint at 1 μM ([1]; mouse, microsomes, pH 7.4): 100 µL/min/mg; pIC50 (SK-Mel-103): 6.40; pIC50 (SK-Mel-19): 6.40
CCCN(CCC)Cc1c(C(=O)N/N=C/c2ccc(N(CC)CC)cc2O)nnn1-c1nonc1N [Compound 7] |  |  |  |  |  | Percent Remaining 0 min [1, 2]: 100%; Percent Remaining 10 min [1, 3]: 46%; Percent Remaining 20 min [1, 3]: 25%; Percent Remaining 30 min [1, 4]: 20%; Percent Remaining 60 min [1, 5]: 11%; half-life at 1 µM ([1]; human, microsomes, pH 7.4): 10.7 min; microsomal CLint at 1 μM ([1]; human, microsomes, pH 7.4): 130 µL/min/mg; Percent Remaining 0 min [1, 6]: 100%; Percent Remaining 10 min [1, 7]: 26%; Percent Remaining 20 min [1, 7]: 7.1%; Percent Remaining 30 min [1, 8]: 3.8%; Percent Remaining 60 min [1, 9]: 1.4%; half-life at 1 µM ([1]; mouse, microsomes, pH 7.4): 5.2 min; microsomal CLint at 1 μM ([1]; mouse, microsomes, pH 7.4): 270 µL/min/mg; pIC50 (SK-Mel-103): 6.60; pIC50 (SK-Mel-19): 6.46
CC(=O)NC(c1ccc2c(c1)OCO2)c1ccc2cccnc2c1O (stereo not drawn) [Compound N103A8] | 5.12 | 4.7 | 5.79 | 4.5 | 5.77 | 
O=C(N/N=C/c1c(O)ccc2ccccc12)c1cc(C23CC4CC(CC(C4)C2)C3)n[nH]1 [Compound N147A7] | 5.29 | 1.3 | 5.40 | 2.7 | 5.72 | 
CCOc1cccc(/C=N/NC(=O)CSc2nc3ccccc3[nH]2)c1O [Compound N144G3] | 4.08 | 3.22 | 4.59 | 4.7 | 4.75 | 
C=CCc1cccc(/C=N/NC(=O)c2cc(C(C)(C)C)n[nH]2)c1O [Compound N147G5] | < 4.60 | >6 | 5.38 | >5 | 5.30 | 
O=C(N/N=C\c1cc(Cc2ccccc2Cl)ccc1O)c1cncc(Br)c1 [Compound N171H10] | < 4.60 | >10 | 5.59 | >6 | 5.40 | 
CCN(CC)c1ccc(/C=N/NC(=O)c2cc(Br)ccc2O)c(O)c1 [Compound N6008] | < 4.60 | >11 | 5.63 | >11 | 5.63 | 
CN1C(=O)/C(=C\c2cn(Cc3ccccc3)c3ccccc23)C(=O)NC1=S [Compound N423F7] | 2.70 | 22 | 4.05 | 17 | 3.92 | 
c1ccc(-c2nnc(-c3ccccn3)nc2-c2ccccc2)cc1 [Compound N49C4] | 3.80 |  | 4.71 | 8.1 | ~3.14 | 
Cc1ccc(/C=N/NC(=O)c2cc(-c3ccccc3)n[nH]2)c(O)c1 [Compound 1] |  |  |  |  |  | pIC50 (SK-Mel-103): 5.60; pIC50 (SK-Mel-19): 5.40
O=c1[nH]c2ccc(/N=C/c3cn(Cc4ccc(Cl)cc4Cl)c4ccccc34)cc2[nH]1 [Compound N18C5] | < 4.00 |  | < 4.00 | >6 | 4.80 | 
Nc1nonc1-n1nnc(C(=O)N/N=C/c2ccccc2O)c1CN1CCc2ccccc2C1 [Compound 5] |  |  |  |  |  | pIC50 (SK-Mel-103): 6.46; pIC50 (SK-Mel-19): 6.22
